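GI50: concentration for 50% inhibition of growth. TGI: total growth inhibition.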
Key:
Assay in all cases: DTP human tumour cell line panel, 384-well format
ACHN renal = test system: ACHN renal
HCC-2998 colon = test system: HCC-2998 colon
HCT-15 colon = test system: HCT-15 colon
UO-31 renal = test system: UO-31 renal
NCI-H460 NSCLC = test system: NCI-H460 NSCLC
NCI-H522 lung = test system: NCI-H522 lung
MCF7 breast = test system: MCF7 breast
SF-539 CNS = test system: SF-539 CNS
HT29 colon = test system: HT29 colon
CAKI-1 renal = test system: CAKI-1 renal
RPMI-8226 leukemia = test system: RPMI-8226 leukemia
KM12 colon = test system: KM12 colon
MDA-MB-435 melanoma = test system: MDA-MB-435 melanoma

For O=C(Cc1ccccc1)Nc1nnc(CCSCCc2nnc(NC(=O)Cc3ccccc3)s2)s1, the GI50 (ACHN renal) was over 30 µM, the TGI (ACHN renal) was over 100 µM and the GI50 (HCC-2998 colon) was 39.7 µM. It also gave a TGI (HCC-2998 colon) of over 100 µM, a GI50 (HCT-15 colon) of over 100 µM and a TGI (HCT-15 colon) of over 100 µM. The GI50 (UO-31 renal) was 46 µM, the TGI (UO-31 renal) was over 100 µM and the GI50 (NCI-H460 NSCLC) was 10.8 µM. It also gave a TGI (NCI-H460 NSCLC) of over 100 µM, a GI50 (NCI-H522 lung) of 2.92 µM and a TGI (NCI-H522 lung) of 15.1 µM. For the same compound, the GI50 (MCF7 breast) was over 28.5 µM, the TGI (MCF7 breast) was over 75.1 µM and the GI50 (SF-539 CNS) was 3.16 µM. The TGI (SF-539 CNS) was 18.2 µM, the GI50 (HT29 colon) was over 100 µM and the TGI (HT29 colon) was over 100 µM. It also gave a GI50 (CAKI-1 renal) of 8.03 µM, a TGI (CAKI-1 renal) of over 41 µM and a GI50 (RPMI-8226 leukemia) of 1.42 µM. It also gave a GI50 (KM12 colon) of 1.94 µM, a TGI (KM12 colon) of over 100 µM and a GI50 (MDA-MB-435 melanoma) of 30 µM. It also gave a TGI (MDA-MB-435 melanoma) of over 100 µM.

Reference: PubChem BioAssay (NCI)
